Measured values published in ChEMBL document CHEMBL5150076, “Discovery of Novel Orally Bioavailable Triazoles with Potent and Broad-Spectrum Antifungal Activity In Vitro and In Vivo” (J Med Chem, 2022).
In brackets after ≈: the same amount, converted by molar mass.

Legend:
Format in all cases: functional
Cryptococcus neoformans [1] = test: Antifungal activity against Cryptococcus neoformans H99 incubated for 72 hrs by microbroth dilution method
Candida albicans [2] = test: Antifungal activity against Candida albicans SC5314 incubated for 24 hrs by microbroth dilution method
Aspergillus fumigatus = test: Antifungal activity against Aspergillus fumigatus 7544 incubated for 48 hrs by microbroth dilution method
Candida albicans [3] = test: Antifungal activity against Candida albicans Y0109
Candida parapsilosis = test: Antifungal activity against Candida parapsilosis 22019; details: Lodderomyces parapsilosis
Cryptococcus neoformans [4] = test: Antifungal activity against Cryptococcus neoformans 32605
Nakaseomyces glabratus = test: Antifungal activity against Candida glabrata 537
Trichophyton rubrum = test: Antifungal activity against Trichophyton rubrum cmccftla
Nannizzia gypsea = test: Antifungal activity against Microsporum gypseum

Structure (SMILES)	MIC (Cryptococcus neoformans [1])	MIC (Candida albicans [2])	MIC (Aspergillus fumigatus)	MIC (Candida albicans [3])	MIC (Candida parapsilosis)	MIC (Cryptococcus neoformans [4])	MIC (Nakaseomyces glabratus)	MIC (Trichophyton rubrum)	MIC (Nannizzia gypsea)
C[C@@H](c1cn(-c2ccc(O)cc2)nn1)[C@](O)(Cn1cncn1)c1ccc(F)cc1F	2 µg/mL (≈ 4.85 µM)	3 µg/mL (≈ 7.27 µM)	> 64 µg/mL						
C[C@@H](c1cn(-c2cc(F)cc(F)c2)nn1)[C@](O)(Cn1cncn1)c1ccc(F)cc1F	0.0625 µg/mL (≈ 0.145 µM)	0.0625 µg/mL (≈ 0.145 µM)	8 µg/mL (≈ 18.5 µM)						
C[C@@H](c1cn(-c2ccc(S(C)(=O)=O)cc2)nn1)[C@](O)(Cn1cncn1)c1ccc(F)cc1F	4 µg/mL (≈ 8.43 µM)	0.5 µg/mL (≈ 1.05 µM)	> 64 µg/mL						
C[C@@H](c1cn(-c2ccc(OCc3ccc(C#N)cc3)cc2)nn1)[C@](O)(Cn1cncn1)c1ccc(F)cc1F		0.125 µg/mL (≈ 0.237 µM)	> 64 µg/mL						
C[C@@H](c1cn(-c2ccc(OCc3ccc(C(F)(F)F)cc3)cc2)nn1)[C@](O)(Cn1cncn1)c1ccc(F)cc1F	0.125 µg/mL (≈ 0.219 µM)	1 µg/mL (≈ 1.75 µM)	16 µg/mL (≈ 28 µM)						
C[C@@H](c1cn(-c2ccc(OCc3ccc(F)cc3)cc2)nn1)[C@](O)(Cn1cncn1)c1ccc(F)cc1F	0.0625 µg/mL (≈ 0.12 µM)	0.125 µg/mL (≈ 0.24 µM)	> 64 µg/mL						
C[C@@H](c1cn(-c2ccc(C(F)(F)F)cc2)nn1)[C@](O)(Cn1cncn1)c1ccc(F)cc1F	0.0625 µg/mL (≈ 0.135 µM)	0.0625 µg/mL (≈ 0.135 µM)	16 µg/mL (≈ 34.5 µM)						
C[C@@H](c1cn(-c2ccc(OCc3ccc(OC(F)(F)F)cc3)cc2)nn1)[C@](O)(Cn1cncn1)c1ccc(F)cc1F	0.0625 µg/mL (≈ 0.107 µM)	0.25 µg/mL (≈ 0.426 µM)	8 µg/mL (≈ 13.6 µM)						
C[C@@H](c1cn(-c2ccc(C#N)cc2)nn1)[C@](O)(Cn1cncn1)c1ccc(F)cc1F	0.25 µg/mL (≈ 0.593 µM)	0.125 µg/mL (≈ 0.297 µM)	> 64 µg/mL						
C[C@@H](c1cn(-c2ccc(Br)cc2)nn1)[C@](O)(Cn1cncn1)c1ccc(F)cc1F	0.125 µg/mL (≈ 0.263 µM)	0.0625 µg/mL (≈ 0.131 µM)	8 µg/mL (≈ 16.8 µM)						
C[C@@H](c1cn(-c2ccc(Cl)cc2Cl)nn1)[C@](O)(Cn1cncn1)c1ccc(F)cc1F	0.125 µg/mL (≈ 0.269 µM)		> 8 µg/mL						

Stronger by MIC (Aspergillus fumigatus), values ahead:

MIC (Cryptococcus neoformans [1])	MIC (Candida albicans [2])	MIC (Aspergillus fumigatus)	MIC (Candida albicans [3])	MIC (Candida parapsilosis)	MIC (Cryptococcus neoformans [4])	MIC (Nakaseomyces glabratus)	MIC (Trichophyton rubrum)	MIC (Nannizzia gypsea)	Structure (SMILES)
0.125 µg/mL (≈ 0.278 µM)	0.125 µg/mL (≈ 0.278 µM)	2 µg/mL (≈ 4.44 µM)							C[C@@H](c1cn(-c2cc(F)c(F)c(F)c2)nn1)[C@](O)(Cn1cncn1)c1ccc(F)cc1F
0.0625 µg/mL (≈ 0.145 µM)	0.0625 µg/mL (≈ 0.145 µM)	2 µg/mL (≈ 4.63 µM)	0.0313 µg/mL (≈ 0.0724 µM)	0.0625 µg/mL (≈ 0.145 µM)	0.0313 µg/mL (≈ 0.0724 µM)	0.0625 µg/mL (≈ 0.145 µM)	0.25 µg/mL (≈ 0.578 µM)	2 µg/mL (≈ 4.63 µM)	C[C@@H](c1cn(-c2cc(F)ccc2F)nn1)[C@](O)(Cn1cncn1)c1ccc(F)cc1F
0.125 µg/mL (≈ 0.253 µM)	0.0313 µg/mL (≈ 0.0633 µM)	2 µg/mL (≈ 4.05 µM)							C[C@@H](c1cn(-c2ccc(OCC(F)(F)F)cc2)nn1)[C@](O)(Cn1cncn1)c1ccc(F)cc1F
0.0625 µg/mL (≈ 0.119 µM)	0.0156 µg/mL (≈ 0.0296 µM)	2 µg/mL (≈ 3.8 µM)							C[C@@H](c1cn(-c2ccc(OCC(F)(F)C(F)F)cc2)nn1)[C@](O)(Cn1cncn1)c1ccc(F)cc1F
0.0625 µg/mL (≈ 0.126 µM)	0.0313 µg/mL (≈ 0.0632 µM)	2 µg/mL (≈ 4.04 µM)							C[C@@H](c1cn(-c2ccc(OCC(F)(F)F)nc2)nn1)[C@](O)(Cn1cncn1)c1ccc(F)cc1F
0.0625 µg/mL (≈ 0.133 µM)	0.0625 µg/mL (≈ 0.133 µM)	2 µg/mL (≈ 4.27 µM)							C[C@@H](c1cn(-c2c(F)c(F)cc(F)c2F)nn1)[C@](O)(Cn1cncn1)c1ccc(F)cc1F
0.0625 µg/mL (≈ 0.133 µM)	0.0156 µg/mL (≈ 0.0333 µM)	2 µg/mL (≈ 4.27 µM)							CCCCOc1ccc(-n2cc([C@H](C)[C@](O)(Cn3cncn3)c3ccc(F)cc3F)nn2)cc1
0.0625 µg/mL (≈ 0.158 µM)	0.0625 µg/mL (≈ 0.158 µM)	4 µg/mL (≈ 10.1 µM)							C[C@@H](c1cn(-c2ccccc2)nn1)[C@](O)(Cn1cncn1)c1ccc(F)cc1F
0.0625 µg/mL (≈ 0.151 µM)	0.0625 µg/mL (≈ 0.151 µM)	2 µg/mL (≈ 4.83 µM)							C[C@@H](c1cn(-c2ccccc2F)nn1)[C@](O)(Cn1cncn1)c1ccc(F)cc1F
0.0625 µg/mL (≈ 0.139 µM)	0.0625 µg/mL (≈ 0.139 µM)	4 µg/mL (≈ 8.91 µM)							C[C@@H](c1cn(-c2ccc(Cl)cc2F)nn1)[C@](O)(Cn1cncn1)c1cc(F)ccc1F
